Reference: PubChem BioAssay (NCI)
Where “and” joins values, the source holds several entries; their conditions need not be identical. Identical values can stand only once.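 The compound was tested at five concentrations on cells cultured in 96-well plates, with a 48-hour exposure period. Abbreviation: GI50, concentration required for 50% inhibition of growth. TGI: concentration producing complete growth inhibition.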

Experiments:
Test in all cases: NCI tumour cell line growth inhibition, 48 h
[1] = tested on: NCI/ADR-RES ovarian
[2] = tested on: HT29 colon
[3] = tested on: OVCAR-4 ovarian
[4] = tested on: A549 NSCLC
[5] = tested on: 786-0 renal
[6] = tested on: NCI-H226 lung
[7] = tested on: MCF7 breast
[8] = tested on: SK-OV-3 ovarian
[9] = tested on: DU-145 prostate
[10] = tested on: MOLT-4 leukemia

Structure (SMILES) | GI50 [1] [µM] | TGI [1] [µM] | GI50 [2] [µM] | TGI [2] [µM] | GI50 [3] [µM] | TGI [3] [µM] | GI50 [4] [µM] | TGI [4] [µM] | GI50 [5] [µM] | TGI [5] [µM] | GI50 [6] [µM] | TGI [6] | GI50 [7] [µM] | TGI [7] [µM] | GI50 [8] [µM] | TGI [8] | GI50 [9] [µM] | TGI [9] [µM] | GI50 [10] [µM] | TGI [10]
Nc1ccc(C#Cc2cncnc2Nc2ccc(OCc3cccc(F)c3)c(Cl)c2)cc1 | 12.7 | > 25 | 10.1 | > 25 | 12.3 | > 25 | 8.58 | > 25 | 17.4 | > 25 | 10.6 | > 25 µM | 11.9 | > 25 | 8.88 | > 25 µM | > 18 | > 25 | 19.5 | > 25 µM
COc1ccc(C2NCCc3c2[nH]c2ccccc32)cc1CN1CCN(c2ccc(F)cc2)CC1 (centres undefined) | 2.27 | 5.89 | 1.7 | 3.49 | 2.28 | 7.22 | 2.9 | 9.29 | 1.71 | 3.17 | 13 | 35.1 µM | 1.66 | 3.27 | 2.53 | 6.01 µM | 2.76 | 7.81 | 1.97 | 5.25 µM
O=C(Nc1cnn2ccc(N3CCC[C@@H]3c3cc(F)ccc3F)nc12)N1CC[C@H](O)C1 | > 100 | > 100 | > 100 | > 100 | > 100 | > 100 | > 100 | > 100 | > 100 | > 100 | > 100 | > 100 µM | > 100 | > 100 | > 100 | > 100 µM | > 100 | > 100 | > 100 | > 100 µM
N#C/C(=C/C=C(\Cl)c1ccc(Cl)cc1)C(N)=O | 2.67 | 7.43 | 3.38 | > 36.5 | 4.91 | > 48.2 | 7.54 | 15.4 | 1.87 | 4.2 | 4.96 | 13.9 µM | 4.91 | > 100 | 14.9 | 42.3 µM | 3.31 | 12.5 | 0.66 | > 39.8 µM
O=C1c2cccnc2-c2nc(/C=C/c3ccccc3)cc3c2c1nc1ccccc13 | 6.35 | 42.1 | 1.87 | 3.97 | 3.77 | 10.5 | 2.2 | 4.34 | 2.26 | 6.48 | 10.1 | 28 µM | 0.899 | 5.01 | 7.1 | 17 µM | 1.76 | 3.58 | 1.57 | 10.8 µM
CO[C@H]1[C@H](O)[C@H](O[C@H]2CC[C@@]3(C)[C@H](CC[C@@H]4[C@@H]3CC[C@]3(C)[C@@H](C5=CC(=O)OC5)CC[C@]43O)C2)O[C@@H](C)[C@@H]1O | – | 0.00115 | – | 0.00148 | – | 0.000626 | – | 0.00078 | – | 0.000687 | – | 0.0192 µM and < 0.0129 µM | – | 0.0288 | – | 0.00245 µM and 0.0106 µM | – | < 0.0001 | – | 0.00766 µM and < 0.0265 µM
CCCCCCCCOc1ccc(/C=N/Nc2cc(C)nc3ccc(Cl)cc23)cc1 | 1.97 | 4.07 | 1.81 | 3.34 | 1.82 | 3.55 | 1.7 | 3.52 | 1.86 | 3.66 | 1.7 | 3.62 µM | 1.94 | 3.91 | 1.65 | 3.1 µM | 1.76 | 3.32 | 2.05 | 4.93 µM
COc1ncc(-c2nc3c(n2C(C)C)[C@H](c2ccc(Cl)cc2)N(c2cc(Cl)cn(C)c2=O)C3=O)c(OC)n1 | 44 | > 100 | 41.7 | > 100 | 29.2 | > 100 | 17.9 | > 100 | 67.5 | > 100 | 15.1 | 80.4 µM | 17.3 | > 100 | 40.4 | > 100 µM | 94.8 | > 100 | 12.4 | 39.6 µM
COC(=O)[C@]12CC[C@@H](C)[C@H](C)[C@@H]1C1=CC[C@@H]3[C@@]4(C)C(C=O)=C[C@@](C)(COC(C)=O)[C@@H]4[C@H](O)C[C@@]3(C)[C@]1(C)CC2 | 2.79 | 9.73 | 1.92 | 3.97 | 2.64 | 10.7 | 3.29 | 12.3 | 1.89 | 4.26 | 1.95 | 4.8 µM | 1.94 | 5.51 | 4.35 | 16.1 µM | 1.91 | 3.93 | 1.34 | 5.02 µM
C=C1C(=O)O[C@H]2[C@H]1CC/C(COC(=O)C(=O)c1c[nH]c3ccc(OC)cc13)=C\CC[C@@]1(C)O[C@@H]21 | 9.53 | 29.6 | 2.65 | 6.35 | 6.93 | 21.4 | 8.64 | 17.3 | 5.37 | 9.91 | 5.84 | 9.99 µM | 3.69 | 16.9 | 19.8 | 35.1 µM | 7.99 | 17 | 5.31 | 16 µM
COc1c2ccccc2c(O)c2c(=O)c(C(=O)O)cn(C)c12 | > 100 | > 100 | > 100 | > 100 | > 100 | > 100 | > 100 | > 100 | > 100 | > 100 | 17.4 | > 100 µM | > 100 | > 100 | > 100 | > 100 µM | > 100 | > 100 | > 100 | > 100 µM
COc1cc2c3c(n(CCCN)c(=O)c2cc1OC)-c1ccc(F)cc1C3=O | 10.6 | 25.2 | 1.03 | 3.18 | 6.04 | 21.2 | 4.94 | 21.4 | 1.34 | 2.7 | 7.87 | 27.2 µM | 0.618 | 7.25 | 3.87 | 17.7 µM | 0.788 | 2.03 | 0.385 | 4.13 µM
N#Cc1c[nH]n2ccnc12 | – | > 100 | – | > 100 | – | > 100 | – | > 100 | – | > 100 | – | > 100 µM | – | > 100 | – | > 100 µM | – | > 100 | – | > 100 µM
O=c1cccc(C#Cc2ccccc2)o1 | 7.11 | > 26.6 | 14.6 | > 100 | 18.4 | 44.5 | 11.1 | > 90.9 | 2.2 | 15 | 13.2 | > 36.3 µM | 4.37 | > 100 | 16.2 | > 44.8 µM | 7.74 | > 68.6 | 2.77 | –
